In series [1] the test system is 11-cis-retinol biosynthesis (IMH activity) in retinal pigment epithelial membrane system. Kind of series: Effect on 11-cis-retinol biosynthesis (IMH activity) in RPE membranes. The series is classed as biochemical, bovine. As to the method:
A control reaction mixture without any inhibitor was also incubated at room temperature for 15 min. At the end of the min incubation, all-trans-retinol [11-12-^3H2] (0.2 μM) was added to the reaction mixtures (100 mM Tris pH 8.0, […] of RPE protein, 0.2% BSA 100 μM of DPPC, 1 mM of DTT and 0.2 μM all-trans-retinol [11-12-^3H2]) and incubated at room temperature for 30 min. At the end of this 30 minutes of incubation, an aliquot of the reactions were quenched to verify the equal addition of all-trans-retinol [11,12-^3H2] and the effect of these inhibitors on LRAT. After this the control reaction mixture was incubated with atRA (60 & 6 μM), 13cRA (60 & 6 μM) or 4-HPR (60 & 6 μM) for 15 min. Now all the reaction mixtures were incubated with 30 μM of apo-rCRALBP (100 mM Tris pH 8.0, 7.7 μg of RPE protein, 0.2% BSA 100 μM of DPPC, 1 mM of DTT 30 μM apo-rCRALBP and 0.2 μM all-trans-retinol [11-12-^3H2]) at 37° C. for 30 minutes. At the end of this incubation period the 200 μL reaction mixture was quenched by the addition of 750 μL ice cold methanol after which 100 μL of 1M sodium chloride solution was added, and 500 μl hexane (containing butylated hydroxy toluene at 1 mg/mL) was added to effect extraction of the retinoids. The retinoids were analyzed as previously described (27). The amount of 11-cis-retinol formed was used as a measurement of IMH activity. All experiments were performed in triplicate and the average values of these measurements were used for analysis.
A control reaction mixture without any inhibitor was also incubated at room temperature for 15 min. At the end of the min incubation, all-trans-retinol [11-12-^3H2] (0.2 μM) was added to the reaction mixtures (100 mM Tris pH 8.0, 76.7 μg of RPE protein, 0.2% BSA 100 μM of DPPC, 1 mM of DTT and 0.2 μM all-trans-retinol [11-12-^3H2]) and incubated at room temperature for 30 min. […] The retinoids were analyzed as previously described (27). […]

The target in another series is T1, RPE65 (Bos taurus, UniProt Q28175).
T1 construct: Frozen bovine eyecups devoid of retinas were purchased from W. L. Lawson Co; tissue W. L. Lawson Co; host or cells: bovine eyecups (retinal pigment epithelium)
The experiment in a line: Fluorescence binding assay of retinoids and analogs to purified RPE65. More on the design: species or system bovine. The protocol: Purification of mRPE65, sRPE65 and rHRPE65: Purification was performed as described before (Ma et al., 2001). The purities of these proteins were verified by silver staining or Coomassie staining and Western blot (1:4000 primary antibody-1 h at room temperature and 1:4000 secondary antibody-0.5 h at room temperature).
(§1) Fluorescence binding assays: RPE65 in PBS, 1% CHAPS, pH 7.4 was used in the fluorometric titration studies. Protein concentrations were measured by a modified Lowry method (Lowry et al., 1951). All titrations were performed at 25° C. The samples in PBS buffer were excited at 280 nm and the fluorescence was scanned from 300 to 500 nm. Fluorescence measurements, using 450 μL quartz cuvettes with a 0.5 cm path length, were made at 25° C. on a Jobin Yvon Instruments, Fluoromax 2 employing the right-angle detection method.
(§2) The fluorescence of the protein solution was measured after equilibrating it at 25° C. for 10 min. The sample was then titrated with a solution of retinoid dissolved in dimethyl sulfoxide. In each titration, to a 250 μL solution of the protein an equal amount of retinoid, typically 0.2 μL. was added and thoroughly mixed before allowing it to equilibrate for 10 min prior to recording the fluorescence intensity. […] The binding constant (KD) was calculated from the fluorescence intensity by using the following equation (Gollapalli et al., 2003).
where P0=Total protein concentration,
n=number of independent binding sites, R0=Total retixioid concentration at each addition, KD=dissociation constant, Fmax=Fluorescence intensity at saturation, and F0=Initial fluorescence intensity.

A further series deals with T2, sRPE65 (Bos taurus, UniProt Q28175).
T2 construct: Frozen bovine eyecups devoid of retinas were purchased from W. L. Lawson Co; tissue W. L. Lawson Co; host or cells: bovine eyecups (retinal pigment epithelium)
The experiment in a line: Fluorescence binding of retinoids to purified sRPE65. More on the design: species or system bovine. To be noted: 0.37 μM sRPE65, phosphate buffered saline pH 7.4, 1% CHAPS. As to the method: as §1
The fluorescence of the protein solution was measured after equilibrating it at 25° C. for 10 min. […] In each titration, to a 250 μL solution of the protein an equal amount of retinoid, typically 0.2 μL. was added and thoroughly mixed before allowing it to equilibrate for 10 min prior to recording the fluorescence intensity. […] The binding constant (KD) was calculated from the fluorescence intensity by using the following equation (Gollapalli et al., 2003).
As mentioned above, membrane associated RPE65 (mRPE65) stereospecifically binds all-trans-retinyl palmitate. In this example, the binding of retinoids to sRPE65 is measured by the fluorescence methodology already described (Gollapalli, D. R., Maiti, P., Rando, R. R. (2003) RPE65 operates in the vertebrate visual cycle by stereospecifically binding all-trans-retinyl esters. Biochemistry 42, 11824-30). […]

The target of another series is mouse RPE65. The experiment in a line: Constants of affinity (Kds) for mouse RPE65. Type of series: binding. The settings on record: read-out: Kd (constant of affinity) for mouse RPE65. The protocol: as §1, §2
The constants of affinity (Kds) of several compounds for mouse RPE65 were determined. […] Thus, the potency of binding is a function of the ester chain length, i.e., the longer the chain length, the stronger the affinity for RPE65 is and the stronger the antagonist is.

The next series concerns the target T3, tLRAT (Homo sapiens, UniProt O95237).
T3 construct: This form of LRAT has the two N and C-terminal transmembrane domains of LRAT truncated; made in house
T3 sequence (O95237 31-196 limits assumed): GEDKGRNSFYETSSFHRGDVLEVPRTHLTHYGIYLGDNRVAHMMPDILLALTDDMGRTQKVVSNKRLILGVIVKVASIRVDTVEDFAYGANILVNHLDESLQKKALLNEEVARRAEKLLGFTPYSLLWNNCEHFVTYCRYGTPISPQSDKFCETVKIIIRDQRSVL
Kind of series: mRPE65 concentration-dependent esterification of vitamin A by tLRAT. Type of series: biochemical. As to the method:
mRPE65 concentration-dependent esterification of vitamin A: The effect of mRPE65 concentration on the rates of all-trans-retinyl palmitate formation was determined by monitoring the tLRAT catalyzed formation of all-trans-retinyl palmitate from added [11,12-^3H2]-all-trans-retinol and mRPE65. It should be noted that all-trans-retinyl palmitate formed from mRPE65 and vitamin A was identified both by its mass spectroscopic and chromatographic properties. The reaction mixture (volume 0.1 mL) contains 100 mM Tris (pH 8.4), 5 μM of tLRAT 0.3% CHAPS, 1 mM dithiothreitol and 5 μM of all-trans-retinol [11,12-^3H2] and mRPE65 (0, 0.008, 0.02, 0.028, 0.04, 0.052, 0.06 and 0.08 μM) incubated for 10 min at room temperature. After 10 min the reaction was quenched with 500 μL methanol, 100 μL of water and 500 μL of hexane. The amount of all-trans-retinyl palmitate [11,12-^3H2] formed as determined by normal phase-HPLC and was used as a measure of activity. The kinetic parameters KM (Kapp) and N were calculated as described before (Segal 1993). Each experiment was done in triplicate, and the data points used are an average of these three points. […]
In these experiments, pure mRPE65 and vitamin A are incubated with LRAT and the resultant all-trans-retinyl palmitate is isolated by HPLC. […] Under the same conditions, no observable turnover of DPPC is measured (FIG. 11B).

Where [2] appears, read: purified RPE65, PBS, 1% CHAPS, pH 7.4, 25° C., N=4, read-out: average KD for binding to RPE65.

Where two headings read alike, the source gives them in different places.

Results on five molecules are retold here after patent US20080176952A1, “Management of Ophthalmologic Disorders, Including Macular Degeneration” (priority 2004, published 2008).

T1 sequence (Q28175 whole entry): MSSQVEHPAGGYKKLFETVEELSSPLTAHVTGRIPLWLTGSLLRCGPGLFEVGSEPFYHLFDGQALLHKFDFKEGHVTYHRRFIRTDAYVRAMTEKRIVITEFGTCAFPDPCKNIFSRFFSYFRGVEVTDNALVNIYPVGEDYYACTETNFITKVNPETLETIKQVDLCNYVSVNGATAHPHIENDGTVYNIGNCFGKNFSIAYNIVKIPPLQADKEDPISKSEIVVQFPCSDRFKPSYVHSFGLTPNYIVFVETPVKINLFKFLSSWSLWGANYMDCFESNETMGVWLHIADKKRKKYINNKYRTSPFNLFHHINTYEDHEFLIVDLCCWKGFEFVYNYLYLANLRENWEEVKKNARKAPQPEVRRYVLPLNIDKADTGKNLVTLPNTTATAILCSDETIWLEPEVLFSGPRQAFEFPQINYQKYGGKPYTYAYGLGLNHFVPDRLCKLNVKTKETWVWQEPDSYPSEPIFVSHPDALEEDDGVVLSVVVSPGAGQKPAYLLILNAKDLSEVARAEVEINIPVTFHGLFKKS
T2 sequence (Q28175 whole entry): as above

Take `CC1=C(/C=C/C(C)=C/C=C/C(C)=C\C(=O)O)C(C)(C)CCC1` [13-cis-retinoic acid]: the “inhibition of 11-cis-retinol formation” value in series [1] (membranes pre-incubated with vitamin A before inhibitor, 60 μM, data not shown) is given as “not susceptible to inhibition”.
The Kd is a measure of binding affinity in units of concentration. Regarding `CC1=C(/C=C/C(C)=C/C=C/C(C)=C/C(=O)Nc2ccc(O)cc2)C(C)(C)CCC1` [N-(4-hydroxyphenyl)retinamide, reference compound], at RPE65 (setting [2]), the Kd is approximately 3550 nM. Also, in series [1] (membranes pre-incubated with the inhibitor before vitamin A (FIG. 8)), the “inhibition of 11-cis-retinol formation” value is reported as “substantially weaker”.
In the case of `CC1=C(/C=C/C(C)=C/C=C/C(C)=C/CO)C(C)(C)CCC1` [all-trans-retinol, reference compound], on sRPE65, the Kd is approximately 65 nM.
As for `CCCCCCCCCCCCCCCC(=O)OC/C=C(C)/C=C/C=C(C)/C=C/C1=C(C)CCCC1(C)C` [retinyl palmitate], the Kd was 47 nM on RPE65 (antagonist of RPE65, read-out: KD); 47 nM on RPE65 (setting [2]); 47 nM at mouse RPE65; approximately 1200 nM at sRPE65.

B1: mRPE65: membrane-associated, palmitoylated form of RPE65; acts as palmitoyl donor for LRAT (protein, UniProt Q16518 2-533, looked up)
Retinoid isomerohydrolase: SIQVEHPAGGYKKLFETVEELSSPLTAHVTGRIPLWLTGSLLRCGPGLFEVGSEPFYHLFDGQALLHKFDFKEGHVTYHRRFIRTDAYVRAMTEKRIVITEFGTCAFPDPCKNIFSRFFSYFRGVEVTDNALVNVYPVGEDYYACTETNFITKINPETLETIKQVDLCNYVSVNGATAHPHIENDGTVYNIGNCFGKNFSIAYNIVKIPPLQADKEDPISKSEIVVQFPCSDRFKPSYVHSFGLTPNYIVFVETPVKINLFKFLSSWSLWGANYMDCFESNETMGVWLHIADKKRKKYLNNKYRTSPFNLFHHINTYEDNGFLIVDLCCWKGFEFVYNYLYLANLRENWEEVKKNARKAPQPEVRRYVLPLNIDKADTGKNLVTLPNTTATAILCSDETIWLEPEVLFSGPRQAFEFPQINYQKYCGKPYTYAYGLGLNHFVPDRLCKLNVKTKETWVWQEPDSYPSEPIFVSHPDALEEDDGVVLSVVVSPGAGQKPAYLLILNAKDLSEVARAEVEINIPVTFHGLFKKS
modifications: palmitoylated membrane-associated form
notes: membrane-associated, palmitoylated form of RPE65; acts as palmitoyl donor for LRAT
Usually Km stands for the substrate concentration at which the rate is half of its maximum. Regarding B1, in the series with tLRAT (5 μM tLRAT, 5 μM all-trans-retinol, sigmoidal kinetics, read-out: KM (Kapp) as palmitoyl donor), the Km came to 0.03 µM. Also, in the series with tLRAT (tLRAT catalyzed palmitoyl transfer to vitamin A), the “N (Hill plot)” value turned out to be 2.54.
